In ChEMBL document CHEMBL5725380, “Substituted biaryl compound” (2017) one finds Ki data, which are given here for twelve compounds.

The test has as its target Prostaglandin E2 receptor EP2 subtype (Homo sapiens, UniProt P43116). The experiment in a line: Binding Assay: Measurement of EP2 receptor binding action was performed in accordance with the method of Abramovitz et al. (Biochimica et Biophysica Acta, 1483, 285 (2000)). A test compound dissolved in dimethyl sulfoxide (final concentration: 1.0 (V/V) %) and [3H]prostaglandin E2 (NET-428, manufactured by PerkinElmer) (final concentration: 10 nM) were added to a buffer solution (10 mM MES-KOH (pH 6.0), 10 mM MgCl2, 1 mM EDTA) in which 10 μg of a membrane fraction of HEK293 cells expressing human EP2 receptor (ES-562-M, manufactured by Euroscreen) was suspended, and then incubated at 30° C. for 60 minutes. The membrane fraction was recovered on glass fiber filter paper (GF/B, manufactured by Whatman) using a cell harvester (M30R, manufactured by Brandel), and after washing with a buffer solution (10 mM MES-KOH (pH 6.0), 10 mM MgCl2), radioactivity was measured with a liquid scintillation analyzer (2000CA, manufactured by Packard). Type of test: cell membranes.

Prostaglandin E2 receptor EP2 subtype, sequence (P43116 whole entry): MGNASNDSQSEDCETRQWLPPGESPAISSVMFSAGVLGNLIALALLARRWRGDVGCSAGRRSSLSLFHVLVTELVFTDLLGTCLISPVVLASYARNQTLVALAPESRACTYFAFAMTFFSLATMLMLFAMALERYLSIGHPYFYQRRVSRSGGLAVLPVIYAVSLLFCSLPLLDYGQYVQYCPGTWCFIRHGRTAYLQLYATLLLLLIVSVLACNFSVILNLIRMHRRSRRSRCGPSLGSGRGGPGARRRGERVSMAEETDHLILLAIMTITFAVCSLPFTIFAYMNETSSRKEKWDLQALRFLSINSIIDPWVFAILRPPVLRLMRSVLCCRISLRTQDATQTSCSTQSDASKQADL

As to `CC#Cc1ccc(-c2ccc(CN(Cc3cccc(NCC(=O)O)n3)S(=O)(=O)c3ccccn3)cc2)cc1`, the Ki (as a rule, the equilibrium dissociation constant of an inhibitor or competing ligand from its target) is 6.8 nM.
In the case of `O=C(O)CNc1cccc(CN(Cc2ccc(-c3ccc(Cl)cc3)cc2)S(=O)(=O)c2cccnc2)n1`, the Ki is > 10 nM.
As to `C=CCc1cccc(-c2ccc(CN(Cc3cccc(NCC(=O)O)n3)S(=O)(=O)c3ccccn3)cc2)c1`, the Ki worked out at 1.7 nM.
To `CCc1cccc(-c2ccc(CN(Cc3cccc(NCC(=O)O)n3)S(=O)(=O)c3ccccn3)cc2)c1` belongs 1.4 nM; to `Cc1cccc(-c2ccc(CN(Cc3cccc(NCC(=O)O)n3)S(=O)(=O)c3ccccn3)cc2)c1`, 2.2 nM; to `CC#Cc1cccc(-c2ccc(CN(Cc3cccc(NCC(=O)O)n3)S(=O)(=O)c3cccc(F)c3)cc2)c1`, 1.4 nM.
To `CCCc1cccc(-c2ccc(CN(Cc3cccc(NCC(=O)O)n3)S(=O)(=O)c3ccccn3)cc2)c1` belongs 1.1 nM; to `CC#Cc1ccccc1-c1ccc(CN(Cc2cccc(NCC(=O)O)n2)S(=O)(=O)c2ccccn2)cc1`, 0.75 nM.
As for `CCOc1ccccc1-c1ccc(CN(Cc2cccc(NCC(=O)O)n2)S(=O)(=O)c2ccccn2)cc1`, the Ki was found to be 2.6 nM.
`COc1cccc(-c2ccc(CN(Cc3cccc(NCC(=O)O)n3)S(=O)(=O)c3ccccn3)cc2)c1`: the Ki turned out to be 1.2 nM.
The value for `CCOc1ccc(-c2ccc(CN(Cc3cccc(NCC(=O)O)n3)S(=O)(=O)c3ccccn3)cc2)cc1` was > 10 nM; that for `Cc1cnc(-c2ccc(CN(Cc3cccc(NCC(=O)O)n3)S(=O)(=O)c3ccccn3)cc2)s1` was > 10 nM.
